Experimental findings from patent publication US20250064766A1, “COMPOSITIONS AND METHODS FOR INCREASING ARGININE AND NITRIC OXIDE LEVELS” (priority 2023, published 2025) are described below.

Data set [1] is described as follows: Urine arginine and citrulline levels following stimulating agent dosing (LC-MRM/MS). It counts as in vivo. Here is the method:
The subjects in each of Groups A and B were given a single 6 g dose (powder dissolved in about 4 oz of water). A urine sample is taken from each subject prior to dosing (baseline) and 24 hours after dosing. The pre-dosing sample for each subject is used as a baseline from which to compare any increase or decrease in arginine and/or citrulline urine levels. • Group A (8 subjects): 6 g of citrulline HCl in 4 oz. of water • Group B (8 subjects): 6 g of L-Citrulline in 4 oz. of water
A third group, consisting of seven subjects, were given a single 2 g dose, otherwise following the same protocol: • Group C (7 subjects): 2 g of citrulline HCl in 4 oz. of water
Internal standard (IS) solutions of arginine-13C6 and citrulline-d7 were prepared in 6 percent trichloroacetic acid solution. Standard substances of arginine and citrulline HCl were precisely weighed and dissolved in Sigmatrix Urine Diluent to make their stock solutions, at 5 mM for each compound. The two stock solutions were then mixed at an equal volume and the mixed standard solution was step by step diluted with Sigmatrix Urine Diluent to have nine serially diluted calibration solutions. The concentrations of each compound in the calibration solutions ranged from 0.015 to 250 μM.
Urine samples were thawed at room temperature. After vortex-mixing for 5 s, 100 μL of each sample was precisely aliquoted into a 1.5-mL Eppendorf safe-lock tube. A mixed urine sample was pooled from 100 μL of each of 10 randomly selected among all the urine samples. Nine 100-μL aliquots of this pooled urine sample were processed along with the batch samples and the calibration solutions for the purpose of quality control (QC) to monitor the analytical variations of the sample preparation and the assay.
To 100 μL of urine or 100 μL of each calibration solution, 100 μL of the IS solution was added. The mixtures were vortexed for 10 s at 3,000 rpm and then sonicated in an ice-water bath for 1 min, followed by centrifugal clarification at 21,000 g and 10° C. for 10 min. 100 μL of the clear supernatant of each solution was mixed with 900 μL of water. 4-μL aliquots of the resultant sample and calibration solutions were injected to run liquid chromatography-multiple reaction monitoring mass spectrometry (LC-MRM/MS) on an Agilent 1290 UHPLC system connected to an Agilent 6495B triple-quadrupole mass spectrometer, which was operated with positive-ion electrospray ionization and in the MRM mode using two pairs of MRM ion transitions and other MS parameters for arginine and citrulline, respectively.
A Waters HSS T3 UPLC column (2.1*100 mm, 1.8 μm) was used for the chromatographic separation and a 5-mM heptafluorobutyric acid solution and acetonitrile were used as the mobile phase for binary-solvent gradient elution under optimized conditions. LC-MRM/MS raw data files were acquired and processed using the Agilent MassHunter® software suite. For concentration calculations, linearly regressed calibration curves of arginine and citrulline were constructed respectively with the data acquired from the calibration solutions. Concentrations of the two compounds detected in urine were calculated by interpolating the calibration curve with the peak area ratios areas measured from the sample solutions, in an appropriate concentration range for each compound.

Another data set in a line: physchem. The following applies: 16.7 °C, thermodynamic from solid. Here is the method:
Add five grams of conjugate or blend into 100 mL of water in a 250 ml Beaker. • 2. Record temperature of water before adding conjugate or blend. • 3. After conjugate is added to water, stir or swirl solution for 2 minutes exactly. • 4. If the solution is still cloudy or precipitate is present after 2 minutes, promptly transfer mixture into filter. • 5. If the solution is not cloudy and all of conjugate appears to have gone into solution, add another five grams of conjugate and repeat on from step 3. • 6. Record all data and amounts of conjugate added. • 7. Once solution with precipitate has been filtered, dry the filter with conjugate and use mass by difference to record dry mass of conjugate.
(§1) The solution was filtered, dried, and massed.
as §1, §1, §1, §1

The nature of data set [2]: Plasma arginine and citrulline levels following stimulating agent dosing (LC-MRM/MS). It counts as in vivo. Here is the method:
Plasma samples from each of Groups A, B, and C were taken from each subject prior to dosing (baseline) and at 30 minute intervals thereafter up to 180 minutes after dosing (30, 60, 90, 120, and 180 minutes). The pre-dosing sample for each subject is used as a baseline from which to compare any increase or decrease in arginine and/or citrulline plasma levels.
Internal standard (IS) solution of arginine-13C6 and citrulline-d7 were prepared in 6 percent trichloroacetic acid solution. Standard substances of arginine and citrulline were precisely weighed and dissolved in SigMatrix Ultra Serum Diluent to make their stock solutions, at 2000 or 4000 µM for each compound. The stock solutions were then mixed and further diluted with SigMatrix Ultra Serum Diluent to have 9 serially diluted calibration solutions. The concentrations of each compound in the calibration solutions ranged from 0.0008 to 50 μM.
Plasma samples were thawed at room temperature. After vortex-mixing for 5 s, 50 μL of each sample was precisely aliquoted into a 1.5-mL Eppendorf safe-lock tube. […] Twelve 50-μL aliquots of this pooled plasma sample were processed in parallel and analyzed periodically, along with the preparation and analysis of the batch samples and the calibration solutions for the purpose of quality control (QC) to monitor the analytical variations of the sample preparation and the assay. […]

Setting [3] is: single 6 g dose in 4 oz. of water, 24 hours after dosing.
[4] abbreviates: single 6 g dose in 4 oz. of water, Baseline (prior to dosing).

Converted amounts (≈) assume the structure as drawn.

Turning to `NC(=O)NCCC[C@H](N)C(=O)O` [L-Citrulline, L-citrulline, reference compound], the “percent increase in urine citrulline 24 hours after dosing per gram” value in data set [1] (single 6 g dose) is on record as “about 1000 percent/g”. Besides, the “Citrulline Urine Levels Total Average Amount” value in data set [1] (setting [3]) is given as 128,215.41 μM; in data set [1] (setting [4]), 2,042.91 μM. This molecule registered a solubility at 2 min in “physchem” (water) of 49.8 mg/mL (≈ 284 mM). Moreover, in data set [2] (single 6 g dose), the “amount of citrulline in plasma, comparison of Groups A-C” value was “much larger amount of citrulline in plasma”.

Consider `Cl.NC(=O)NCCC[C@H](N)C(=O)O` [Citrulline HCl, citrulline hydrochloride], for which the concentration at 24 h in data set [1] (human, urine, oral, single 2 g dose in 4 oz. of water, 24 hours after dosing, read-out: Citrulline Urine Levels Total Average Amount) stood at 17900 µM. In addition, the “percent increase in urine citrulline 24 hours after dosing per gram” value in data set [1] (single 2 g dose) and in data set [1] (single 6 g dose) was “about 300 percent/g” in each case. The “Citrulline Urine Levels Total Average Amount” value in data set [1] (single 2 g dose in 4 oz. of water, Baseline (prior to dosing)) is 2,471.80 μM; in data set [1] (setting [3]) it was 157,053.26 μM; in data set [1] (setting [4]), 8,773.04 μM. Further, the solubility at 2 min in the data set “physchem” came to 149 mg/mL. Besides, the “arginine production per dose, comparison of Groups A-C (plasma)” value in data set [2] (single 2 g dose, normalized per dose) is listed as “highest arginine production per dose”.
